{
  "source": "patent US9670480B2",
  "about": "“Genome-wide construction of Schizosaccharomyces pombe heterozygous deletion mutants containing gene-specific barcodes by the methods of 4-round serial or block PCR, or total gene synthesis thereof” (Korea Research Institute of Bioscience and Biotechnology, priority 2008, dated 2017)",
  "key": {"[1]": {"tested_on": "Wild-type SP286 strain", "test": "IC50 measurement of growth inhibition in YES broth (final O.D600, Prism)", "type": "cell-based", "details": "Schizosaccharomyces pombe, 30° C., 24 hours, read-out: IC50 (drug-induced inhibition against cell growth)", "method": "In order to determine the concentration of the chemical for the treatment, 50% inhibitory concentration (IC50) was first measured. Wild-type SP286 strain was grown to O.D600=2.0 in YES broth and inoculated with from 5- to 10-fold serial dilutions of the chemical to O.D600=0.1, followed by incubation at 30° C. for 24 hours. At each concentration of the chemical, the cultures were measured for final O.D600 values which were then plotted against Log [Chemical Concentration]. On the basis of these plots, IC50 values were automatically calculated using Prism Software (version 3.0, GraphPad Software Inc., San Diego, Calif.). Scientific experience made it possible to determine the concentrations of the chemical at around the appropriate IC50 values.\nIn order to screen terbinafine's modes of action with the GeneChip, first, the treatment concentrations of drug were determined by the measurements of IC50 obtained in the above-mentioned method. In this regard, relative rates of drug-induced inhibition against cell growth were obtained by treating the cells with terbinafine at doses of 0.1 nM, 1 nM, 5 nM, 10 nM, 50 nM, 100 nM, 500 nM and […]. Analysis with Prism software determined IC50=40 nM (FIG. 11)."}, "[2]": {"tested_on": "erg1 heterozygous deletion mutant", "test": "Reconfirmation of GeneChip result on YES agar plates containing terbinafine", "type": "cell-based, Schizosaccharomyces pombe", "method": "(§1) Since the drug's modes of action detected with the GeneChip might include the false positive signals resulting experiment errors and false chip analysis, all the top 10 drug's modes of action, except non-specific ribosome-related genes, were cultured again on YES agar plates containing terbinafine. […] Therefore, the genes erg1 and pmm1 within the red boxes were verified as being targets of terbinafine."}, "[3]": {"tested_on": "pmm1 heterozygous deletion mutant", "test": "Reconfirmation of GeneChip result on YES agar plates containing terbinafine", "type": "cell-based, Schizosaccharomyces pombe", "method": "as §1"}, "[4]": {"tested_on": "smb1 heterozygous deletion mutant", "test": "Reconfirmation of GeneChip result on YES agar plates containing terbinafine", "type": "cell-based, Schizosaccharomyces pombe", "method": "as §1"}},
  "data": [
    {"smiles": "CN(C/C=C/C#CC(C)(C)C)Cc1cccc2ccccc12", "note": "[terbinafine]", "values": [
      {"measurement": "IC50", "setting": "[1]", "result": 40, "unit": "nM"},
      {"measurement": "plate reconfirmation of GeneChip-based mode of action, erg1", "setting": "[2]", "result": "same results as in the chip"},
      {"measurement": "plate reconfirmation of GeneChip-based mode of action, pmm1", "setting": "[3]", "result": "same results as in the chip"},
      {"measurement": "plate reconfirmation of GeneChip-based mode of action, smb1", "setting": "[4]", "result": "difference from the chip result"}
    ]}
  ]
}
